Data as given in patent US20180055032A1, “ODORS FOR PSYLLID TRAPPING, REPELLING AND CONTROL” (The Regents of the University of California, priority 2011, published 2018).
Like-named read-outs stand apart in the source and are kept apart here.

Legend:
Type in all cases: cell-based, Diaphorina citri
[1] = system: neuron 6C (rhinarial plate on flagellomere 6); experiment: single-sensillum electrophysiology, odor response of neuron 6C; details: for response to inhibitory odors, 6C: Table 2, odor diluted to 10^−2, 50 μL in cartridge; for odor response (frequency of action potentials during stimulus minus baseline), 6C: Table 1, odor diluted to 1%, 50 μL in cartridge; for response to inhibitory odors, 6C: key: 0, no response; +, >50 spikes/second; ++, >100 spikes/second; +++, >150 spikes/second
[2] = system: neuron 7B (rhinarial plate on flagellomere 7); details: for odor response (frequency of action potentials during stimulus minus baseline), 7B: Table 1, odor diluted to 1%, 50 μL in cartridge
[3] = system: neuron 7A (rhinarial plate on flagellomere 7); experiment: single-sensillum electrophysiology, odor response of neuron 7A; details: for response to inhibitory odors, 7A: Table 2, odor diluted to 10^−2, 50 μL in cartridge; for odor response (frequency of action potentials during stimulus minus baseline), 7A: Table 1, odor diluted to 1%, 50 μL in cartridge; for all read-outs here: key: 0, no response; +, >50 spikes/second; ++, >100 spikes/second; +++, >150 spikes/second
[4] = system: neuron 6A (rhinarial plate on flagellomere 6); experiment: single-sensillum electrophysiology, odor response of neuron 6A; details: for response to inhibitory odors, 6A: Table 2, odor diluted to 10^−2, 50 μL in cartridge; for odor response (frequency of action potentials during stimulus minus baseline), 6A: Table 1, odor diluted to 1%, 50 μL in cartridge
[5] = system: neuron 7C (rhinarial plate on flagellomere 7); experiment: single-sensillum electrophysiology, odor response of neuron 7C; details: for response to inhibitory odors, 7C: Table 2, odor diluted to 10^−2, 50 μL in cartridge; for odor response (frequency of action potentials during stimulus minus baseline), 7C: Table 1, odor diluted to 1%, 50 μL in cartridge
[6] = system: neuron 2C (rhinarial plate on flagellomere 2); experiment: single-sensillum electrophysiology, odor response of neuron 2C; details: for response to inhibitory odors, 2C: Table 2, odor diluted to 10^−2, 50 μL in cartridge; for odor response (frequency of action potentials during stimulus minus baseline), 2C: Table 1, odor diluted to 1%, 50 μL in cartridge
[7] = system: neuron 4A (rhinarial plate on flagellomere 4); experiment: single-sensillum electrophysiology, odor response of neuron 4A; details: for response to inhibitory odors, 4A: Table 2, odor diluted to 10^−2, 50 μL in cartridge; for odor response (frequency of action potentials during stimulus minus baseline), 4A: Table 1, odor diluted to 1%, 50 μL in cartridge
[8] = system: neuron 4C (rhinarial plate on flagellomere 4); experiment: single-sensillum electrophysiology, odor response of neuron 4C; details: Table 2; odor diluted to 10^−2, 50 μL in cartridge; note: key: 0, no response; +, >50 spikes/second; ++, >100 spikes/second; +++, >150 spikes/second
[9] = system: neuron 2A (rhinarial plate on flagellomere 2); experiment: single-sensillum electrophysiology, odor response of neuron 2A; details: for response to inhibitory odors, 2A: Table 2, odor diluted to 10^−2, 50 μL in cartridge; for odor response (frequency of action potentials during stimulus minus baseline), 2A: Table 1, odor diluted to 1%, 50 μL in cartridge; for all read-outs here: key: 0, no response; +, >50 spikes/second; ++, >100 spikes/second; +++, >150 spikes/second
[10] = system: neuron 2B (rhinarial plate on flagellomere 2); experiment: single-sensillum electrophysiology, odor response of neuron 2B; details: for response to inhibitory odors, 2B: Table 2, odor diluted to 10^−2, 50 μL in cartridge; for odor response (frequency of action potentials during stimulus minus baseline), 2B: Table 1, odor diluted to 1%, 50 μL in cartridge
[11] = system: neuron 6B (rhinarial plate on flagellomere 6); experiment: single-sensillum electrophysiology, odor response of neuron 6B; details: for response to inhibitory odors, 6B: Table 2, odor diluted to 10^−2, 50 μL in cartridge; for odor response (frequency of action potentials during stimulus minus baseline), 6B: Table 1, odor diluted to 1%, 50 μL in cartridge
[12] = system: neuron 4B (rhinarial plate on flagellomere 4); details: for odor response (frequency of action potentials during stimulus minus baseline), 4B: Table 1, odor diluted to 1%, 50 μL in cartridge
[13] = Table 2, odor diluted to 10^−2, 50 μL in cartridge

Compound | response to inhibitory odors, 6C [1] | response to inhibitory odors, 7B [2, 13] | response to inhibitory odors, 7A [3] | response to inhibitory odors, 6A [4] | response to inhibitory odors, 7C [5] | response to inhibitory odors, 2C [6] | response to inhibitory odors, 4A [7] | response to inhibitory odors, 4C [8] | response to inhibitory odors, 2A [9] | response to inhibitory odors, 2B [10] | response to inhibitory odors, 6B [11] | other results
CCC(=O)O [propionic acid] | 0 | 0 | 0 | 0 | 0 | 0 | 0 | 0 | 0 | 0 |  | 
CCCCCC(=O)OCC [ethyl hexanoate] | 0 | 0 | 0 | 0 |  | 0 | 0 | 0 | 0 | 0 | 0 | response to inhibitory odors, 4B [12, 13]: 0
CCCCCN [pentylamine] | 0 | 0 | 0 | 0 | 0 | 0 | 0 |  | 0 |  | 0 | response to inhibitory odors, 4B [12, 13]: 0
CCCCCCN [hexylamine] | 0 | 0 | 0 | 0 | 0 | 0 | 0 |  | 0 | 0 | 0 | response to inhibitory odors, 4B [12, 13]: 0
CC(C)C(=O)O [isobutyric acid] |  | 0 | 0 | 0 | 0 | 0 | 0 |  | 0 | 0 | 0 | 
C=C1CC[C@H]2C[C@@H]1C2(C)C [(−)-β-pinene] |  |  |  |  |  |  |  |  |  |  |  | odor response (frequency of action potentials during stimulus minus baseline), 6C [1]: 0; odor response (frequency of action potentials during stimulus minus baseline), 7B [2]: 0; odor response (frequency of action potentials during stimulus minus baseline), 6B [11]: + (+, >50 spikes/second); odor response (frequency of action potentials during stimulus minus baseline), 7A [3]: 0; odor response (frequency of action potentials during stimulus minus baseline), 6A [4]: 0; odor response (frequency of action potentials during stimulus minus baseline), 7C [5]: 0; odor response (frequency of action potentials during stimulus minus baseline), 2C [6]: 0; odor response (frequency of action potentials during stimulus minus baseline), 4A [7]: 0; odor response (frequency of action potentials during stimulus minus baseline), 2A [9]: 0; odor response (frequency of action potentials during stimulus minus baseline), 2B [10]: 0; odor response (frequency of action potentials during stimulus minus baseline), 4B [12]: + (+, >50 spikes/second)
CC1=CC[C@H]2C[C@@H]1C2(C)C [(−)-α-pinene] |  |  |  |  |  |  |  |  |  |  |  | odor response (frequency of action potentials during stimulus minus baseline), 6C [1]: 0; odor response (frequency of action potentials during stimulus minus baseline), 7B [2]: 0; odor response (frequency of action potentials during stimulus minus baseline), 6B [11]: + (+, >50 spikes/second); odor response (frequency of action potentials during stimulus minus baseline), 7A [3]: 0; odor response (frequency of action potentials during stimulus minus baseline), 6A [4]: 0; odor response (frequency of action potentials during stimulus minus baseline), 7C [5]: 0; odor response (frequency of action potentials during stimulus minus baseline), 2C [6]: 0; odor response (frequency of action potentials during stimulus minus baseline), 4A [7]: 0; odor response (frequency of action potentials during stimulus minus baseline), 2A [9]: 0; odor response (frequency of action potentials during stimulus minus baseline), 2B [10]: 0; odor response (frequency of action potentials during stimulus minus baseline), 4B [12]: + (+, >50 spikes/second)
CC(=O)O [acetic acid] | 0 |  | 0 | 0 |  | 0 | 0 | 0 | 0 | 0 |  | response to inhibitory odors, 7B [2]: 0
CCCCCCCCOC(C)=O [n-octyl acetate] | 0 | 0 | 0 | 0 | 0 | 0 | 0 | 0 | 0 | 0 | 0 | 
CNC [dimethyl amine] |  |  | 0 | 0 |  | 0 | 0 | 0 | 0 | 0 | 0 | response to inhibitory odors, 7B [2]: 0; response to inhibitory odors, 4B [12]: 0
c1ccncc1 [pyridine] | 0 |  | 0 | 0 | 0 | 0 | 0 |  | 0 | 0 | 0 | response to inhibitory odors, 7B [2]: 0; response to inhibitory odors, 4B [12]: 0
CC1CC(=O)O1 (stereo not drawn) [β-butyrolactone] | 0 | 0 | 0 | 0 | 0 | 0 | 0 | 0 | 0 | 0 | 0 | 
